Data as given in patent US20250084084A1, “Crystalline form of (2R)-2-(5-fluoro-2-methoxypyridin-4-yl)-1-[(2S)-7-methyl-6-(pyrimidin-2-yl)-3,4-dihydro-1H-spiro[1,8-naphthyridine-2,3-pyrrolidin]-1-yl]propan-1-one” (Pfizer Inc., priority 2020, published 2025).

What follows are compounds tested against human Melanocortin-4 receptor (MC4R) (Homo sapiens (Human), UniProt P32245) (assay: Functional in vitro MC4R antagonist potency assay (cAMP HTRF in CHO cells, αMSH EC80 stimulation)). Conditions: cAMP HTRF in CHO cells expressing human MC4R, 200 nM αMSH (EC80); Kb by Leff-Dougall equation; geometric mean.
human Melanocortin-4 receptor (MC4R), sequence (P32245 whole entry): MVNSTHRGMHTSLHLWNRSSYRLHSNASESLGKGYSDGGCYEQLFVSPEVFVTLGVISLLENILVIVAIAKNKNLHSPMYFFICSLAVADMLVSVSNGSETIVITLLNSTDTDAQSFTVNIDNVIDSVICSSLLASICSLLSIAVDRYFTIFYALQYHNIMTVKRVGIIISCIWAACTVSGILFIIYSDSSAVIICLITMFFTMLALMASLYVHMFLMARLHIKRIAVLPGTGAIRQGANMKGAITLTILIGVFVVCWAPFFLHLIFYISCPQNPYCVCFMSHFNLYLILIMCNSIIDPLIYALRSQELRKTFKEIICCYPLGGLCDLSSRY
Type: cell-based
Method: The functional in vitro antagonist potency for test compounds was determined by monitoring intracellular cyclic adenosine monophosphate (cAMP) levels in Chinese hamster ovary (CHO—) cells stably expressing the human Melanocortin-4 receptor (MC4R). […] The activated Ga subunit can couple to downstream effectors to regulate the levels of second messengers or cAMP within the cell. Thereby, determination of intracellular cAMP levels allows for pharmacological characterization. Intracellular cAMP levels are quantitated using a homogenous assay utilizing the Homogeneous Time-Resolved Fluorescence (HTRF) technology from CisBio. The method is a competitive immunoassay between native cAMP produced by cells and the cAMP labelled with the acceptor dye, d2. The two entities then compete for binding to a monoclonal anti-cAMP antibody labeled with cryptate. The specific signal is inversely proportional to the concentration of cAMP in the cells.
Test compounds were solubilized to 30 mM in 100% dimethyl sulfoxide (DMSO) and stored. […]
(95% O2: 5% CO2) overnight, with micro-clime lids (Labcyte, Cat No. LLS-0310). […] Intracellular cAMP levels were quantified as per Cisbio's protocol (5 uL of D2 and then 5 uL Cryptate, incubated for 1-2 hours at room temperature).
Data expressed as nM cAMP were then normalized to control wells using Activity Base (IDBS). […]
In the case of `COc1cc([C@@H](C)C(=O)N2CC[C@@]3(CCc4cc(Cl)c(C)nc4N3)C2)c(F)cn1` (single isomer, unassigned) [Example 103], the Kb is reported as over 92 nM.

Same assay, conditions: read-out: Kb (nM) Antagonist geometric
In the case of `COc1cc([C@@H](C)C(=O)N2CC[C@@]3(CCc4cc(-c5cnccn5)c(C)nc4N3)C2)c(F)cn1` [Example 142, (2R)-2-(5-fluoro-2-methoxypyridin-4-yl)-1-[(2S)-7-methyl-6-(pyrazin-2-yl)-3,4-dihydro-1H-spiro[1,8-naphthyridine-2,3′-pyrrolidin]-1′-yl]propan-1-one], the Kb is reported as 3.6 nM.

The compounds below were run against α-melanocyte-stimulating hormone receptor (hMC4R) (Homo sapiens (Human), UniProt P32245) (assay: In vitro binding affinity assay using hMC4R (radioligand competition binding, [125I]-(Nle4, D-Phe7)-α-MSH)). Conditions: geometric mean, read-out: Ki (nM) geometric.
α-melanocyte-stimulating hormone receptor (hMC4R), sequence (P32245 whole entry): as above
Method in brief: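 Membranes from CHO cells stably expressing hMC4R (2 μg/well) incubated 2 h RT with [125I]-NDP-α-MSH and compound (300 nM-0.01 nM, 1% DMSO); 2 μM α-MSH defined nonspecific binding. Filtration and scintillation counting; Ki from IC50 via Cheng-Prusoff.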
Work on `COc1cc([C@@H](C)C(=O)N2CC[C@@]3(CCc4cc(-c5cnccn5)c(C)nc4N3)C2)c(F)cn1` [Example 142, (2R)-2-(5-fluoro-2-methoxypyridin-4-yl)-1-[(2S)-7-methyl-6-(pyrazin-2-yl)-3,4-dihydro-1H-spiro[1,8-naphthyridine-2,3′-pyrrolidin]-1′-yl]propan-1-one] yielded a Ki of 1.8 nM. In the case of `COc1cc([C@@H](C)C(=O)N2CC[C@@]3(CCc4cc(-c5cccc(C(F)(F)F)n5)c(C)nc4N3)C2)c(F)cn1` [Example 178, (2R)-2-(5-fluoro-2-methoxypyridin-4-yl)-1-{(2S)-7-methyl-6-[6-(trifluoromethyl)pyridin-2-yl]-3,4-dihydro-1H-spiro[1,8-naphthyridine-2,3′-pyrrolidin]-1′-yl}propan-1-one], the Ki is reported as 4.7 nM. Work on `COc1cc([C@@H](C)C(=O)N2CC[C@@]3(CCc4cc(-c5cnc(C)cn5)c(C)nc4N3)C2)c(F)cn1` [Example 158, (2R)-2-(5-fluoro-2-methoxypyridin-4-yl)-1-[(2S)-7-methyl-6-(5-methylpyrazin-2-yl)-3,4-dihydro-1H-spiro[1,8-naphthyridine-2,3′-pyrrolidin]-1′-yl]propan-1-one] yielded a Ki of 3.2 nM. `COc1cc([C@@H](C)C(=O)N2CC[C@@]3(CCc4cc(-c5nnn(C)n5)c(C)nc4N3)C2)nc(C(F)F)n1` (single isomer, unassigned) [Example 127] was tested, and the Ki was 0.97 nM. For `Cc1nc2c(cc1-c1ncccn1)CC[C@@]1(CCN(C(=O)C(C)c3ccnc(OC(F)F)c3)C1)N2` (single isomer, unassigned) [Example 194], the Ki was 92 nM.

Same assay, conditions: geometric mean, read-out: Ki (nM) geometric mean
For `Cc1nc2c(cc1-c1nnn(C)n1)CC[C@@]1(CCN(C(=O)Cc3ccc(C(F)(F)F)cc3)C1)N2` (single isomer, unassigned) [Example 65, 1-[7-methyl-6-(2-methyl-2H-tetrazol-5-yl)-3,4-dihydro-1H-spiro[1,8-naphthyridine-2,3′-pyrrolidin]-1′-yl]-2-[4-(trifluoromethyl)phenyl]ethan-1-one], the Ki was 1.7 nM. In the case of `[2H]C([2H])([2H])Oc1cc([C@@H](C)C(=O)N2CC[C@@]3(CCc4cc(-c5ncccn5)c(C)nc4N3)C2)c(F)cn1` [Example 74, (2R)-2-{5-fluoro-2-[(^2H3)methyloxy]pyridin-4-yl}-1-[(2S)-7-methyl-6-(pyrimidin-2-yl)-3,4-dihydro-1H-spiro[1,8-naphthyridine-2,3′-pyrrolidin]-1′-yl]propan-1-one], the Ki is reported as 1.3 nM. Compound `COc1cc([C@@H](C)C(=O)N2CC[C@@]3(CCc4cc(-c5cc(C(F)(F)F)ncn5)c(C)nc4N3)C2)c(F)cn1` [Example 72, (2R)-2-(5-fluoro-2-methoxypyridin-4-yl)-1-{(2S)-7-methyl-6-[6-(trifluoromethyl)pyrimidin-4-yl]-3,4-dihydro-1H-spiro[1,8-naphthyridine-2,3′-pyrrolidin]-1′-yl}propan-1-one] has a Ki of 3.3 nM. `COc1cc([C@@H](C)C(=O)N2CC[C@]3(CCc4cc(-c5ncccn5)c(C)nc4N3)C2)c(F)cn1` [Example 29, (2R)-2-(5-fluoro-2-methoxypyridin-4-yl)-1-[(2R)-7-methyl-6-(pyrimidin-2-yl)-3,4-dihydro-1H-spiro[1,8-naphthyridine-2,3′-pyrrolidin]-1′-yl]propan-1-one] was tested, and the Ki was 11 nM. For `COc1cc([C@H](C)C(=O)N2CC[C@]3(CCc4cc(-c5ncccn5)c(C)nc4N3)C2)c(F)cn1` [Example 30, (2S)-2-(5-fluoro-2-methoxypyridin-4-yl)-1-[(2R)-7-methyl-6-(pyrimidin-2-yl)-3,4-dihydro-1H-spiro[1,8-naphthyridine-2,3′-pyrrolidin]-1′-yl]propan-1-one], the Ki was over 250 nM.
